Starred links: 1 amine or outer side, 2 acyl side, 3 side chain; linkers in the order of their positions; H or OH if unused. Positions of bridges follow the written chain, without caps; N, C: chain ends. Non-standard residues stand in square brackets, D forms with d. Residues, ends and D or L forms follow the SMILES beside them. Chains are numbered I, II in the order given. Actinocin(9to1) = Cc1c2oc3c(C)ccc(C(=O)[*:1])c3nc-2c(C(=O)[*:2])c(N)c1=O; NMeV = CN[C@H](C(=O)O)C(C)C; Sar = CNCC(=O)O
Organism: Rattus norvegicus
Assay: DrugMatrix - Regimen: Daily Repeat
Type: toxicity, organism-based, Sprague-Dawley
Set-up: regimen Daily Repeat, gender Male, age 6-8 weeks
Conditions: in vivo, iv, 0 mg/kg, dose level Control, vehicle 100 % SALINE; for ABSOLUTE BASOPHIL / ABSOLUTE EOSINOPHIL / ABSOLUTE LYMPHOCYTE / ABSOLUTE MONOCYTE / ABSOLUTE SEGMENTED NEUTROPHIL / BASOPHIL / EOSINOPHIL / ERYTHROCYTE COUNT / HEMATOCRIT / HEMOGLOBIN / LEUKOCYTE COUNT / LYMPHOCYTE / MEAN CORPUSCULAR HEMOGLOBIN / MEAN CORPUSCULAR HEMOGLOBIN CONCENTRATION / MEAN CORPUSCULAR VOLUME / MONOCYTE / NEUTROPHIL / NUCLEATED RED BLOOD CELLS / PLATELET COUNT: tissue Blood
[1] = 72 h, tissue Plasma, time 3 day

Q: What does the source list for `Cc1c2oc3c(C)ccc(C(=O)N[C@@H]4C(=O)N[C@H](C(C)C)C(=O)N5CCC[C@H]5C(=O)N(C)CC(=O)N(C)[C@@H](C(C)C)C(=O)O[C@@H]4C)c3nc-2c(C(=O)N[C@@H]2C(=O)N[C@H](C(C)C)C(=O)N3CCC[C@H]3C(=O)N(C)CC(=O)N(C)[C@@H](C(C)C)C(=O)O[C@@H]2C)c(N)c1=O` [DACTINOMYCIN] (I: T[dV]P[Sar][NMeV] / II: T[dV]P[Sar][NMeV]; ester I:1-I:C, II:1-II:C; linker I:N-II:N via Actinocin(9to1))?
A: ABSOLUTE BASOPHIL (72 h, time 3 day): 0 CELLS/uL; ABSOLUTE EOSINOPHIL (72 h, time 3 day): 33.67 CELLS/uL; ABSOLUTE LYMPHOCYTE (72 h, time 3 day): 12123.5 CELLS/uL; ABSOLUTE MONOCYTE (72 h, time 3 day): 243.5 CELLS/uL; ABSOLUTE SEGMENTED NEUTROPHIL (72 h, time 3 day): 1282.67 CELLS/uL; BASOPHIL (72 h, time 3 day): 0%; EOSINOPHIL (72 h, time 3 day): 0.33%; ERYTHROCYTE COUNT (72 h, time 3 day): 5.18 x10E6/uL; HEMATOCRIT (72 h, time 3 day): 32.63%; HEMOGLOBIN (72 h, time 3 day): 12.87 G/DL; LEUKOCYTE COUNT (72 h, time 3 day): 13.68 x10E3/uL; LYMPHOCYTE (72 h, time 3 day): 88.67%; MEAN CORPUSCULAR HEMOGLOBIN (72 h, time 3 day): 24.98 pg; MEAN CORPUSCULAR HEMOGLOBIN CONCENTRATION (72 h, time 3 day): 39.48 G/DL; MEAN CORPUSCULAR VOLUME (72 h, time 3 day): 63.23 fL; MONOCYTE (72 h, time 3 day): 1.83%; NEUTROPHIL (72 h, time 3 day): 9.17%; NUCLEATED RED BLOOD CELLS (72 h, time 3 day): 0.17 /100WBC; PLATELET COUNT (72 h, time 3 day): 1114.5 x10E3/uL; ALANINE AMINOTRANSFERASE [1]: 46.17 u/L; ALBUMIN [1]: 4.15 G/DL; ALKALINE PHOSPHATASE [1]: 374.67 u/L; ASPARTATE AMINOTRANSFERASE [1]: 89.33 u/L; BLOOD UREA NITROGEN [1]: 14.83 mg/dL; CARBON DIOXIDE [1]: 25.67 mmol/L; CHLORIDE [1]: 101.17 MEQ/L; CHOLESTEROL [1]: 63.5 mg/dL; CREATINE PHOSPHOKINASE [1]: 494.67 u/L; CREATININE [1]: 0.17 mg/dL; GLUCOSE [1]: 163 mg/dL; LACTATE DEHYDROGENASE [1]: 269.33 u/L; LIPASE [1]: 10.67 u/L; PHOSPHORUS [1]: 11.27 mg/dL; POTASSIUM [1]: 5.85 MEQ/L; SODIUM [1]: 141.68 MEQ/L; TOTAL BILIRUBIN [1]: 0.18 mg/dL; TOTAL PROTEIN [1]: 5.87 G/DL; URIC ACID [1]: 1.28 mg/dL; ABSOLUTE BASOPHIL (120 h, time 5 day): 0 CELLS/uL; ABSOLUTE EOSINOPHIL (120 h, time 5 day): 24.67 CELLS/uL; ABSOLUTE LYMPHOCYTE (120 h, time 5 day): 11832.83 CELLS/uL; ABSOLUTE MONOCYTE (120 h, time 5 day): 279.67 CELLS/uL; ABSOLUTE SEGMENTED NEUTROPHIL (120 h, time 5 day): 1446.17 CELLS/uL; BASOPHIL (120 h, time 5 day): 0%; EOSINOPHIL (120 h, time 5 day): 0.17%; ERYTHROCYTE COUNT (120 h, time 5 day): 5.61 x10E6/uL; HEMATOCRIT (120 h, time 5 day): 35.02%; HEMOGLOBIN (120 h, time 5 day): 13.82 G/DL; LEUKOCYTE COUNT (120 h, time 5 day): 13.58 x10E3/uL; LYMPHOCYTE (120 h, time 5 day): 87.67%; MEAN CORPUSCULAR HEMOGLOBIN (120 h, time 5 day): 24.68 pg; MEAN CORPUSCULAR HEMOGLOBIN CONCENTRATION (120 h, time 5 day): 39.5 G/DL; MEAN CORPUSCULAR VOLUME (120 h, time 5 day): 62.42 fL; MONOCYTE (120 h, time 5 day): 2%; NEUTROPHIL (120 h, time 5 day): 10.17%; NUCLEATED RED BLOOD CELLS (120 h, time 5 day): 0 /100WBC; PLATELET COUNT (120 h, time 5 day): 1178.17 x10E3/uL

— ChEMBL document CHEMBL3885881, “DrugMatrix”
